Data on three compounds can be found in patent US20110053925A1, “Hydroxamate-Based Inhibitors of Deacetylases” (Novartis AG, priority 2009, published 2011).

The target of one test is T1, HDAC-1 (Homo sapiens, UniProt Q13547).
T1 construct: made in house; host or cells: Sf9 or Sf21 insect cells (baculovirus, donor vector pFB-GSTX3)
Put plainly: HDAC Inhibition Assay (purified GST-HDAC protein). The test is classed as biochemical. The source says: The baculovirus donor vector pFB-GSTX3 is used to generate a recombinant baculovirus that can express the HDAC polypeptide. Transfer vectors containing the HDAC coding region are transfected into the DH10Bac cell line (GIBCO) and plated on selective agar plates. Colonies without insertion of the fusion sequence into the viral genome (carried by the bacteria) are blue. Single, white colonies are picked and viral DNAs (bacmid) are isolated from the bacteria by standard plasmid purification procedures. Sf9 cells or Sf21 (American Type Culture Collection) cells are then transfected in […] flasks with the viral DNA using Cellfectin reagent.
Virus-containing media is collected from the transfected cell culture and used for infection to increase its titer. Virus-containing media obtained after two rounds of infection is used for large-scale protein expression. For large-scale protein expression 100 cm^2 round tissue culture plates are seeded with 5×10^7 cells/plate and infected with 1 mL of virus-containing media (at an approximately MOI of 5). After 3 days, the cells are scraped off the plate and centrifuged at 500 rpm for 5 minutes. Cell pellets from 10-20, 100 cm^2 plates, are re-suspended in 50 mL of ice-cold lysis buffer (25 mM tris-HCl, pH 7.5, 2 mM EDTA, 1% NP-40, 1 mM DTT, 1 mM P MSF). The cells are stirred on ice for 15 minutes and then centrifuged at 5,000 rpms for 20 minutes.
The centrifuged cell lysate is loaded onto a 2 mL glutathione-sepharose column (Pharmacia) and is washed thrice with 10 mL of 25 mM tris-HCl, pH 7.5, 2 mM EDTA, 1 mM DTT, 200 mM NaCl. The GST-tagged proteins are then eluted by 10 applications (1 mL each) of 25 mM tris-HCl, pH 7.5, 10 mM reduced-glutathione, 100 mM NaCl, 1 mM DTT, 10% glycerol and stored at −70° C.
HDAC assays with purified GST-HDAC protein are carried out in a final volume of 30 μL containing 15 ng of GST-HDAC protein, 20 mM tris-HCl, pH 7.5, 1 mM MnCl2, 10 mM MgCl2, 1 mM DTT, 3 μg/mL poly(Glu,Tyr) 4:1, 1% DMSO, 2.0 μM ATP (γ-[^33P]-ATP 0.1 μCi). The activity is assayed in the presence or absence of inhibitors. […] Subsequently, […] of the reaction mixture are transferred onto EMMOBILON-PVDF membrane (Millipore) previously soaked for 5 minutes with methanol, rinsed with water, then soaked for 5 minutes with 0.5% H3PO4 and mounted on vacuum manifold with disconnected vacuum source. After spotting all samples, a vacuum is connected and each well rinsed with 200 μL 0.5% H3PO4. Membranes are removed and washed four times on a shaker with 1.0% H3PO4, once with ethanol. Membranes are counted after drying at ambient temperature, mounting in Packard TopCount 96-well frame, and addition of 10 μL/well of MICROSCINT™ (Packard).
• Input: 3×4 μL stopped assay on IMMOBILON membrane, not washed • Background (3 wells): assay with H2O instead of enzyme • Positive control (4 wells): 3% DMSO instead of compound • Bath control (1 well): no reaction mix
In each experiment, the actual inhibition by reference compound is used for normalization of IC50 values to the basis of an average value of the reference inhibitor:
Normalized IC50=measured IC50 average ref. IC50/measured ref. IC50

The subject of a further test is HCT116. The test is described as follows: HCT116 IC50. The format is cell-based. Conditions: Homo sapiens, HCT-116.

T1 sequence (Q13547 whole entry, species assumed): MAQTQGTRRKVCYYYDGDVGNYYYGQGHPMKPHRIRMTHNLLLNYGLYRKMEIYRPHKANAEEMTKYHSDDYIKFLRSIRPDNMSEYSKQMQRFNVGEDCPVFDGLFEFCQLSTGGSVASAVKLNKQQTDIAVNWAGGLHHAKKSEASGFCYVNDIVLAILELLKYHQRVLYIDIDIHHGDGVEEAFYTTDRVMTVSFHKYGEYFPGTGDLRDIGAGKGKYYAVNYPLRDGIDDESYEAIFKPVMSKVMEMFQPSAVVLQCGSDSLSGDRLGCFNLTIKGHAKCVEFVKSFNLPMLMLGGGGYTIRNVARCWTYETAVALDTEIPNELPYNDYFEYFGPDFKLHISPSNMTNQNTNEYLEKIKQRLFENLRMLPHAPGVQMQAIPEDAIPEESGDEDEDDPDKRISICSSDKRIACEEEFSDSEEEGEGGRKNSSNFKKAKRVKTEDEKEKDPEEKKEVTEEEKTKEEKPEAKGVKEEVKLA

A word on the IC50: it is the concentration needed to halve the response being measured. With `Cc1[nH]c2ccc(N3CCOCC3)cc2c1C1CCCN(Cc2ccc(/C=C/C(=O)NO)cc2)C1` (stereo not drawn) [Compound 20, (E)-N-Hydroxy-3-{4-[3-(2-methyl-5-morpholin-4-yl-1H-indol-3-yl)-piperidin-1-ylmethyl]-phenyl}-acrylamide], the results for the half-inhibitory concentration (IC50) at HDAC-1 and with HCT116 were 0.007 µM and 0.013 µM, respectively.

On to `CC(C)c1[nH]c2ccccc2c1C1CCCN(Cc2ccc(CCC(=O)NO)cc2F)C1` (stereo not drawn) [Compound 21, 3-{3-Fluoro-4-[3-(2-isopropyl-1H-indol-3-yl)-piperidin-1-ylmethyl]-phenyl}-N-hydroxy-propionamide], for which the IC50 was found to be 0.006 µM against HDAC-1 and 0.021 µM in the test with HCT116.

On to `O=C(/C=C/c1ccc(CN2CCOC(c3cc(-c4ccccc4)no3)C2)cc1)NO` (stereo not drawn) [Compound 24, (E)-N-Hydroxy-3-{4-[2-(3-phenyl-isoxazol-5-yl)-morpholin-4-ylmethyl]-phenyl}-acrylamide], for which the figures for the half-maximal inhibitory concentration (IC50) against HDAC-1 and in the test with HCT116 were 0.032 µM and 0.47 µM, respectively.
